Literature values in US20230364254A1, “METHODS FOR TREATING CANCERS WITH ANTIBODY DRUG CONJUGATES (ADC) THAT BIND TO 191P4D12 PROTEINS” (priority 2020, published 2023).
Where two headings read alike, the source gives them in different places.

How the values were obtained:
[1] = tested on: metastatic urothelial cancer; conditions: cited from earlier work
[2] = tested on: acute myeloid leukemia (AML); conditions: administered alone; cited from earlier work
[3] = first line, patients ineligible for cisplatin, open-label single arm study
[4] = second-line, post-platinum, phase 3 study in 542 patients

For `CC(=O)O[C@@]12CO[C@@H]1C[C@H](O)[C@@]1(C)C(=O)[C@H](O)C3=C(C)[C@@H](OC(=O)[C@H](O)[C@@H](NC(=O)OC(C)(C)C)c4ccccc4)C[C@@](O)([C@@H](OC(=O)c4ccccc4)[C@H]21)C3(C)C` [docetaxel], the “ORR (n=2/19)” value ([1]; after platinum and CPI therapy) is listed as 10.5%.
In the case of `CC[C@]12C=CCN3CC[C@@]4(c5cc([C@@]6(C(=O)OC)C[C@@H]7C[C@@H](C(C)(F)F)CN(Cc8c6[nH]c6ccccc86)C7)c(OC)cc5N(C)[C@H]4[C@@](O)(C(=O)OC)[C@@H]1OC(C)=O)[C@@H]32` [vinflunine], the overall response rate ([1]; second-line treatment of metastatic disease) is listed as 9%, the hazard ratio ([1]; second-line, vinflunine+BSC vs BSC alone) is listed as 0.88 and the survival benefit ([1]; second-line, vinflunine+best supportive care (BSC) vs BSC alone) is listed as 2 months. The survival ([1]; second-line, vinflunine+best supportive care (BSC)) was 6.9 months.
For “CT-011: anti-PD-1 antibody, a humanized antibody”, the “response in acute myeloid leukemia (AML) at relapse” value [2] is given as “failed to show response”.
For “atezolizumab: anti-programmed death-ligand 1 (PD-L1) immune checkpoint inhibitor”, the “median OS” value [1, 3] is listed as 15.9 months, the “objective response rate (ORR)” value [1, 3] is listed as 23% and the “confirmatory phase 3 trial outcome” value ([1]; second-line) is listed as “failed to meet its primary endpoint of OS”.
In the case of “pembrolizumab: humanized monoclonal IgG4 anti-PD-1 antibody”, the ORR ([1]; first line, patients ineligible for cisplatin, open label single arm study in 370 patients) is given as 29%, the “difference in progression-free survival (PFS) between the two arms” value ([1]; second-line, post-platinum, phase 3, vs taxane chemotherapy or vinflunine) is given as “No statistically significant difference” and the ORR [1, 4] is given as 21%. For the same compound, the OS [1, 4] was 10.3 months.
